Experimental data from US11414449B2, “Hydrated and anhydrous polymorphs of 2′-O- fucosyllactose and their production methods” (BASF SE, priority 2012, dated 2022).

Assays:
Format in all cases: physicochemical
[1] = re-analysis of example batches after storage (KF, LOD)
Description: (§1) Determination of water content in the product based on a specific oxidation-reduction reaction between the water present in the sample and the Karl Fischer reagent.
(§2) About 200 mg of the 2′-FL were weighed into the appropriate container, the balance was set to zero and the substance transferred into the previously dehydrated cell. The empty container was placed on the pan of the balance to determine the exact value of the substance transferred into the cell. Set the measured weight into the formula: % H2O=V×T×F/PC
(§3) Gravimetric method with heating of the sample using a halogen lamp

[2] = accelerated stability of Polymorph A, water content by Karl-Fischer over time; details: accelerated stability (75 ± 5% RH)
Description: as §1, §2

[3] = stability studies of Polymorph A (accelerated and 25°C/60% RH): KF, loss on drying, XRPD after storage; details: 40°±2° C., 75±5% RH and 25°±2° C., 60±5% RH
Description: In particular Polymorph A, was subjected to studies of stability both accelerated at 40°±2° C.; 75±5% RH and at 25°±2° C., 60±5% RH.
In particular, the percentage of water takes values between 5% and 7%, preferably between 5.5% and 6.5%, still more preferably between 5.7% and 6.2% (See Table 1).
as §1, §3

C[C@@H]1OC(O[C@H]2[C@H](O[C@H]3[C@H](O)[C@@H](O)C(O)O[C@@H]3CO)O[C@H](CO)[C@H](O)[C@@H]2O)[C@@H](O)[C@H](O)[C@@H]1O (mixture of isomers) [Example 4, 2′-O-fucosyllactose]
KF after 6 months ([1]; after 6 months): 6.00% | LOD after 6 months (Method 2) ([1]; after 6 months, LOD Method 2): 2.17%

C[C@@H]1OC(O[C@H]2[C@H](O[C@H]3[C@H](O)[C@@H](O)C(O)O[C@@H]3CO)O[C@H](CO)[C@H](O)[C@@H]2O)[C@@H](O)[C@H](O)[C@@H]1O (mixture of isomers) [Example 19, 2′-O-fucosyllactose]
KF after 2 months ([1]; after 2 months): 0.34%

C[C@@H]1OC(O[C@H]2[C@H](O[C@H]3[C@H](O)[C@@H](O)C(O)O[C@@H]3CO)O[C@H](CO)[C@H](O)[C@@H]2O)[C@@H](O)[C@H](O)[C@@H]1O (mixture of isomers) [Example 21, 2′-O-fucosyllactose]
KF after 10 days in a petri dish ([1]; after 10 days in a petri dish): 0.67%

C[C@@H]1OC(O[C@H]2[C@H](O[C@H]3[C@H](O)[C@@H](O)C(O)O[C@@H]3CO)O[C@H](CO)[C@H](O)[C@@H]2O)[C@@H](O)[C@H](O)[C@@H]1O (mixture of isomers) [Polymorph A, 2′-O-fucosyllactose]
KF % ([2]; time 0 months): 4.2% | KF % ([2]; time 1 month): 6.0% | KF % ([2]; time 2 months): 6.0% | KF % ([2]; time 3 months): 5.7% | KF % ([2]; time 4 months): 5.9% | KF % ([2]; time 5 months): 6.0% | KF % ([2]; time 6 months): 6.0% | XRPD spectrum of stored samples (crystal form retention) [3]: continues to show the characteristic peaks of Polymorph A | humidity uptake in stability studies (KF trend) ([3]; 1-3 months): tends to adsorb humidity immediately
